Measurements published in patent publication US20260285850A1, “SUBSTITUTED OXAZOLIDINONES AND IMIDAZOLINONES AS HERBICIDES” (FMC CORPORATION, priority 2023, published 2026).

How the values were obtained:
Assay type in all cases: in vivo
corn (Zea mays) [1] = assay: Test A preemergence soil spray, visual injury rating 0-100; details: 10 days, 0 = no effect, 100 = complete control
How it was run: (§1)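 Scale 0–100 (no effect to complete control), visual, versus untreated controls, read 10 days after application. Application: preemergence directed spray onto seeded loam–sand soil, or postemergence to young plants; formulation in non-phytotoxic solvent with surfactant.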

soybean (Glycine max) [2] = assay: as above; details: 10 days, 0 = no effect, 100 = complete control
How it was run: as §1

[3] = system: ragweed (common ragweed, Ambrosia artemisiifolia); assay: as above; details: 10 days, 0 = no effect, 100 = complete control
How it was run: as §1

[4] = system: oat, wild (wild oat, Avena fatua); assay: as above; details: 10 days, 0 = no effect, 100 = complete control
How it was run: as §1

[5] = system: green foxtail (Setaria viridis); assay: as above; details: 10 days, 0 = no effect, 100 = complete control
How it was run: as §1

kochia (Bassia scoparia) [6] = assay: as above; details: 10 days, 0 = no effect, 100 = complete control
How it was run: as §1

[7] = system: ryegrass, Italian (italian ryegrass, Lolium multiflorum); assay: as above; details: 10 days, 0 = no effect, 100 = complete control
How it was run: as §1

[8] = system: palmer (palmer amaranth, palmer pigweed, Amaranthus palmeri); assay: as above; details: 10 days, 0 = no effect, 100 = complete control
How it was run: as §1

[9] = system: wheat (Triticum aestivum); assay: as above; details: 10 days, 0 = no effect, 100 = complete control
How it was run: as §1

[10] = system: blackgrass (Alopecurus myosuroides); assay: as above; details: 10 days, 0 = no effect, 100 = complete control
How it was run: as §1

[11] = system: barnyardgrass (Echinochloa crus-galli); assay: as above; details: 10 days, 0 = no effect, 100 = complete control
How it was run: as §1

[12] = system: barnyardgrass (Echinochloa crusgalli); assay: Test B flooded paddy test, visual plant response rating 0-100; details: 250 g ai/ha, Flood, applied to paddy water, evaluated after 13 days
How it was run: (§2)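 2-leaf plants; flood 3 cm over soil; compound dosed into paddy water; depth kept constant; greenhouse 13 d; visual scoring vs controls. Dash = no result.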

rice (Oryza sativa) = assay: as above; details: 250 g ai/ha, Flood, applied to paddy water, evaluated after 13 days
How it was run: as §2

[13] = system: sedge, umbrella (small-flower umbrella sedge, Cyperus difformis); assay: as above; details: 250 g ai/ha, Flood, applied to paddy water, evaluated after 13 days
How it was run: as §2

[14] = system: ducksalad (Heteranthera limosa); assay: as above; details: 250 g ai/ha, Flood, applied to paddy water, evaluated after 13 days
How it was run: as §2

corn (Zea mays) [15] = assay: Test A postemergence application, visual injury rating 0-100; details: Postemergence, 10 days, 0 is no effect, 100 is complete control
How it was run: as §1

soybean (Glycine max) [16] = assay: as above; details: Postemergence, 10 days, 0 is no effect, 100 is complete control
How it was run: as §1

[17] = system: galium (catchweed bedstraw, Galium aparine); assay: as above; details: Postemergence, 10 days, 0 is no effect, 100 is complete control
How it was run: as §1

[18] = system: ragweed (common ragweed, Ambrosia artemisiifolia); assay: as above; details: Postemergence, 10 days, 0 is no effect, 100 is complete control
How it was run: as §1

[19] = system: oat, wild (wild oat, Avena fatua); assay: as above; details: Postemergence, 10 days, 0 is no effect, 100 is complete control
How it was run: as §1

[20] = system: green foxtail (Setaria viridis); assay: as above; details: Postemergence, 10 days, 0 is no effect, 100 is complete control
How it was run: as §1

kochia (Bassia scoparia) [21] = assay: as above; details: Postemergence, 10 days, 0 is no effect, 100 is complete control
How it was run: as §1

[22] = system: ryegrass, Italian (italian ryegrass, Lolium multiflorum); assay: as above; details: Postemergence, 10 days, 0 is no effect, 100 is complete control
How it was run: as §1

[23] = system: palmer (palmer amaranth, palmer pigweed, Amaranthus palmeri); assay: as above; details: Postemergence, 10 days, 0 is no effect, 100 is complete control
How it was run: as §1

[24] = system: wheat (Triticum aestivum); assay: as above; details: Postemergence, 10 days, 0 is no effect, 100 is complete control
How it was run: as §1

[25] = system: horseweed (Erigeron canadensis); assay: as above; details: Postemergence, 10 days, 0 is no effect, 100 is complete control
How it was run: as §1

[26] = system: blackgrass (Alopecurus myosuroides); assay: as above; details: Postemergence, 10 days, 0 is no effect, 100 is complete control
How it was run: as §1

[27] = system: barnyardgrass (Echinochloa crus-galli); assay: as above; details: Postemergence, 10 days, 0 is no effect, 100 is complete control
How it was run: as §1

CC1(C(=O)NC2C=CC(C(=O)OCCS(C)(=O)=O)C2)CN(c2cc(Cl)cc(Cl)c2)C(=O)O1 (stereo not shown) [Compound 46]
Corn plant response rating (0 to 100 scale) (corn (Zea mays) [1]; 125 g ai/ha): 0
Corn plant response rating (0 to 100 scale) (corn (Zea mays) [1]; 500 g ai/ha): 90
Soybean plant response rating (0 to 100 scale) (soybean (Glycine max) [2]; 125 g ai/ha): 10
Soybean plant response rating (0 to 100 scale) (soybean (Glycine max) [2]; 500 g ai/ha): 60
Ragweed plant response rating (0 to 100 scale) ([3]; 125 g ai/ha): 30
Ragweed plant response rating (0 to 100 scale) ([3]; 500 g ai/ha): 70
Oat, Wild plant response rating (0 to 100 scale) ([4]; 125 g ai/ha): 70
Oat, Wild plant response rating (0 to 100 scale) ([4]; 500 g ai/ha): 90
Foxtail, Green plant response rating (0 to 100 scale) ([5]; 125 g ai/ha): 0
Foxtail, Green plant response rating (0 to 100 scale) ([5]; 500 g ai/ha): 0
Kochia plant response rating (0 to 100 scale) (kochia (Bassia scoparia) [6]; 125 g ai/ha): 60
Kochia plant response rating (0 to 100 scale) (kochia (Bassia scoparia) [6]; 500 g ai/ha): 90
Ryegrass, Italian plant response rating (0 to 100 scale) ([7]; 125 g ai/ha): 80
Ryegrass, Italian plant response rating (0 to 100 scale) ([7]; 500 g ai/ha): 90
Amaranth, Palmer plant response rating (0 to 100 scale) ([8]; 125 g ai/ha): 80
Amaranth, Palmer plant response rating (0 to 100 scale) ([8]; 500 g ai/ha): 100
Wheat plant response rating (0 to 100 scale) ([9]; 125 g ai/ha): 70
Wheat plant response rating (0 to 100 scale) ([9]; 500 g ai/ha): 90
Blackgrass plant response rating (0 to 100 scale) ([10]; 125 g ai/ha): 80
Blackgrass plant response rating (0 to 100 scale) ([10]; 500 g ai/ha): 90
Barnyardgrass plant response rating (0 to 100 scale) ([11]; 125 g ai/ha): 80
Barnyardgrass plant response rating (0 to 100 scale) ([11]; 500 g ai/ha): 100
Plant response rating, Barnyardgrass (0 to 100 scale, 0 is no effect and 100 is complete control) [12]: 70
Plant response rating, Rice (0 to 100 scale, 0 is no effect and 100 is complete control) (rice (Oryza sativa)): 10
Plant response rating, Sedge, Umbrella (0 to 100 scale, 0 is no effect and 100 is complete control) [13]: 95
Plant response rating, Ducksalad (0 to 100 scale, 0 is no effect and 100 is complete control) [14]: 90
Corn plant response rating (0 to 100 scale) (corn (Zea mays) [15]; 125 g ai/ha): 100
Corn plant response rating (0 to 100 scale) (corn (Zea mays) [15]; 500 g ai/ha): 100
Soybean plant response rating (0 to 100 scale) (soybean (Glycine max) [16]; 125 g ai/ha): 80
Soybean plant response rating (0 to 100 scale) (soybean (Glycine max) [16]; 500 g ai/ha): 90
Galium plant response rating (0 to 100 scale) ([17]; 125 g ai/ha): 80
Galium plant response rating (0 to 100 scale) ([17]; 500 g ai/ha): 70
Ragweed plant response rating (0 to 100 scale) ([18]; 125 g ai/ha): 60
Ragweed plant response rating (0 to 100 scale) ([18]; 500 g ai/ha): 80
Oat, Wild plant response rating (0 to 100 scale) ([19]; 125 g ai/ha): 80
Oat, Wild plant response rating (0 to 100 scale) ([19]; 500 g ai/ha): 90
Foxtail, Green plant response rating (0 to 100 scale) ([20]; 125 g ai/ha): 80
Foxtail, Green plant response rating (0 to 100 scale) ([20]; 500 g ai/ha): 90
Kochia plant response rating (0 to 100 scale) (kochia (Bassia scoparia) [21]; 125 g ai/ha): 80
Kochia plant response rating (0 to 100 scale) (kochia (Bassia scoparia) [21]; 500 g ai/ha): 80
Ryegrass, Italian plant response rating (0 to 100 scale) ([22]; 125 g ai/ha): 70
Ryegrass, Italian plant response rating (0 to 100 scale) ([22]; 500 g ai/ha): 70
Amaranth, Palmer / Pigweed, Palmer plant response rating (0 to 100 scale) ([23]; 125 g ai/ha): 90
Amaranth, Palmer / Pigweed, Palmer plant response rating (0 to 100 scale) ([23]; 500 g ai/ha): 90
Wheat plant response rating (0 to 100 scale) ([24]; 125 g ai/ha): 90
Wheat plant response rating (0 to 100 scale) ([24]; 500 g ai/ha): 90
Horseweed plant response rating (0 to 100 scale) ([25]; 125 g ai/ha): 80
Horseweed plant response rating (0 to 100 scale) ([25]; 500 g ai/ha): 80
Blackgrass plant response rating (0 to 100 scale) ([26]; 125 g ai/ha): 100
Blackgrass plant response rating (0 to 100 scale) ([26]; 500 g ai/ha): 100
Barnyardgrass plant response rating (0 to 100 scale) ([27]; 125 g ai/ha): 100
Barnyardgrass plant response rating (0 to 100 scale) ([27]; 500 g ai/ha): 100
